This note sets out measurements from patent publication US11806343B2, “Inhibitors of DUX4 induction for regulation of muscle function” (Sonic Master Limited, priority 2017, dated 2023).

Data set [1] concerns DUX4. Description: DUX4 expression downregulation by kinase family inhibitors (Table 1). The data set is classed as cell-based. The settings on record: for Quantitation % of DUX4 reduction @the lowest significant [C]: at the lowest significant concentration; for EC50: DUX4 reduction; for lowest significant [C]: concentration in brackets at which the % DUX4 reduction is given.
The subject of data set [2] is DUX4. Kind of data set: FSHD hESC-SkM immunocytochemistry, DUX4 expression. The format is cell-based, human. To be noted: Genea049 hESC-SkM. Here is the method: (§1) FIG. 6 provides an example of a screening and culturing workflow for hESC-SkM assays. At Day 0, hESC-derived myoblasts are thawed into a 96-well plate in myoblast medium (Genea BioCells). On Day 2, the medium is replaced with new myoblast medium containing 1.15 μM. Decitabine. […] On Day 7, the myotubes are analyzed. For example, the myotubes may be analyzed for MHC expression or DUX4 expression.
(§2) Genea049 FSHD-affected human Embryonic Stem Cells (hESCs) were differentiated using Genea's myogenic differentiation protocol (Caron et 2015) to the myoblast stage and cryopreserved. Frozen myoblasts were resuscitated and 4500 cells were plated into each well of a 96-well collagen I coated tissue culture plate in myoblast medium. After two days of cell growth medium was changed to 100 μL per well myoblast medium containing 1.15 μM Decitabine. […] Cells were allowed to differentiate to myotubes for four additional days then were fixed and analyzed for quantification of DUX4 expression, Myosin Heavy Chain expression, and nuclei number. Triplicate wells of each condition were averaged.
as §2, with “et al.,” for “et”, “number by high-content imaging.” for “number.”

For another data set, the system named is Genea049 FSHD hESC-SkM. Description: FSHD hESC-SkM immunocytochemistry, Myosin Heavy Chain and nuclei (myogenic inhibition/toxicity). The data set is classed as cell-based, human. The protocol:
as §1, §2
as §2, with “et al.,” for “et”, “number by high-content imaging.” for “number.”

Where “and” joins values, the source holds several entries; their conditions need not be identical. Equal entries are not always repeated.

Broadly, the EC50 is the concentration needed to bring the measured effect to its halfway point. Low readings indicate a more potent agent, high ones a less potent agent.

`Cc1ccc(NC(=O)c2ccc(CN3CCN(C)CC3)cc2)cc1Nc1nccc(-c2cccnc2)n1` [Imatinib]: the “Quantitation % of DUX4 reduction @the lowest significant [C]” value in the data set on DUX4 [1] came out at 61.13%.

Take `NS(=O)(=O)OC[C@@H]1C[C@@H](n2ccc3c(N[C@H]4CCc5ccccc54)ncnc32)C[C@@H]1O` [GBC0772, MLN4924]: the DUX4 expression entry with DUX4 [2] (100 nM, four days of culture during myotube formation) was “decreased DUX4 expression”. In addition, in the data set with DUX4 [2] (six concentration points 10 nM-3 μM, four days), the “DUX4 expression, dose curve” value is given as “dose-dependent decreased DUX4 expression”. Also, the “Myosin Heavy Chain expression and nuclei count, dose curve” value with Genea049 FSHD hESC-SkM (10 nM-3 μM, four days) is “decreased Myosin Heavy Chain expression and nuclei count”. For the same molecule, in the data set with Genea049 FSHD hESC-SkM (100 nM, four days of culture), the “Myosin Heavy Chain expression and nuclei count” value was “decreased Myosin Heavy Chain expression and nuclei count”.

Regarding `Cc1ncc(NC(=O)c2ccc(CN3CCN(C)CC3)c(C(F)(F)F)c2)cc1Nc1nccc(-c2cccnc2)n1` [Flumatinib], in the data set with DUX4 [1], the 50% effective concentration (EC50) was 82 nM, the “Quantitation % of DUX4 reduction @the lowest significant [C]” value came to 76.09% and the “lowest significant [C]” value was 2.08 µM.

For `Cc1ccc(NC(=O)c2ccc(CN3CC[C@H](N(C)C)C3)c(C(F)(F)F)c2)cc1Nc1nccc(-c2cncnc2)n1` [Bafetinib], in the data set with DUX4 [1], the EC50 worked out at 132 nM, the “Quantitation % of DUX4 reduction @the lowest significant [C]” value was 67.90% and the “lowest significant [C]” value came out at 2.08 µM.

Regarding `Cc1cn(-c2cc(NC(=O)c3ccc(C)c(Nc4nccc(-c5cccnc5)n4)c3)cc(C(F)(F)F)c2)cn1` [Nilotinib], in the data set on DUX4 [1], the “Quantitation % of DUX4 reduction @the lowest significant [C]” value is on record as 76.71% and the “lowest significant [C]” value is 5 µM.

`COc1cc(Nc2c(C#N)cnc3cc(OCCCN4CCN(C)CC4)c(OC)cc23)c(Cl)cc1Cl` [Bosutinib]: in the data set on DUX4 [1], the “Quantitation % of DUX4 reduction @the lowest significant [C]” value is given as 70.58% and the “lowest significant [C]” value stood at 3 µM.

As to `Cc1ccc(NC(=O)c2ccc(CN3CC[C@H](N(C)C)C3)c(C(F)(F)F)c2)cc1Nc1ncc(-c2cncnc2)cn1` [Lyn-IN-1], in the data set on DUX4 [1], the EC50 worked out at 175 nM, the “Quantitation % of DUX4 reduction @the lowest significant [C]” value came out at 70.73% and the “lowest significant [C]” value is 0.88 µM.

On to `CC(C)(C)n1nc(-c2ccc(Cl)cc2)c2c(N)ncnc21` [PP2], for which, at DUX4 [1], the 50% effective concentration (EC50) was 153 nM and 287 nM; the “Quantitation % of DUX4 reduction @the lowest significant [C]” value was 41.77% and 66.61%.
